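Growth conditions: 96-well plates. Treatment: test compound, 48 hours, 5 concentrations. Analysis: linear interpolation between bracketing concentrations; unreached endpoints set to highest concentration. GI50 marks 50% less growth.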 Calls of active or inactive are those of the source. Cut-off read from the data, not from the text of the source: active = GI50 up to about 1.1 µM and inactive = higher.

From ChEMBL document CHEMBL1201862, “PubChem BioAssay data set” (2004) come the findings set out here.

Some test systems named below: 786-0; A549; CAKI-1; CCRF-CEM; DU-145; HL-60; Hs-578T; MCF7; NCI-H226; SK-MEL-28; SN12C; SW-620; U-251; UACC-62; HOP-92; K562; NCI-H460; RPMI-8226; SNB-75; SR.
Assay in all cases: NCI tumour cell line growth inhibition, 48 h

For `CCOC(=O)C(=[N+]=[N-])C(=O)CSC#N`, the GI50 was > 100 µM (inactive) in the test with 786-0; 97.7 µM (inactive) in the test with A549; 32.7 µM (inactive) in the test on CAKI-1; 35.1 µM (inactive) in the test on CCRF-CEM; > 100 µM (inactive) with DU-145; 39.3 µM (inactive) in the test on HL-60. Moreover, the GI50 in the test with Hs-578T was > 100 µM (inactive); in the test on MCF7, 38.4 µM (inactive); with NCI-H226 it was 40.6 µM (inactive); with SK-MEL-28, > 100 µM (inactive); in the test on SN12C it was 25.6 µM (inactive); in the test with SW-620, 57.3 µM (inactive). In addition, the GI50 in the test with U-251 was 46.5 µM (inactive); with UACC-62, 69.5 µM (inactive).
Consider `CN(CC(=O)O)Cc1oc(CO)cc(=O)c1O`, for which the GI50 in the test with 786-0 is > 100 µM (inactive); with A549 it was > 100 µM (inactive); with CAKI-1, > 100 µM (inactive); in the test on CCRF-CEM, > 100 µM (inactive); with HL-60 it was 30 µM (inactive); with HOP-92 it was > 100 µM (inactive). Moreover, the GI50 with Hs-578T, with K562, in the test on MCF7, with NCI-H226, with NCI-H460 and with RPMI-8226 was > 100 µM (inactive) each time. In addition, the GI50 in the test on SK-MEL-28, in the test with SN12C, in the test on SNB-75, with SR, with SW-620 and in the test with U-251 was > 100 µM (inactive) in each case. Moreover, the GI50 in the test on UACC-62 is > 100 µM (inactive).
For `Cc1n[nH]c(=O)n1/N=C/c1cccc(Cl)c1`, the GI50 was > 100 µM (inactive) in the test on 786-0; > 100 µM (inactive) in the test on A549; > 100 µM (inactive) in the test with CAKI-1; > 100 µM (inactive) in the test with CCRF-CEM; 35.6 µM (inactive) in the test with DU-145; 17.7 µM (inactive) in the test on Hs-578T. Also, the GI50 in the test on K562, in the test on MCF7, in the test with NCI-H226, with NCI-H460, in the test on RPMI-8226 and in the test with SK-MEL-28 was > 100 µM (inactive) each time. Further, the GI50 with SN12C is > 100 µM (inactive); with SNB-75, 61.5 µM (inactive); with SW-620, > 100 µM (inactive); in the test with U-251 it was 65.5 µM (inactive); in the test with UACC-62, > 100 µM (inactive).
For `COc1cc(C2S/C(=C/c3ccccc3)C(=O)N2c2cccc([N+](=O)[O-])c2)cc(OC)c1OC` (stereo unspecified), the GI50 in the test with 786-0 was 51.4 µM (inactive); with A549, > 100 µM (inactive); in the test with CAKI-1, 48.8 µM (inactive); in the test with HOP-92 it was 62.1 µM (inactive); with Hs-578T, > 100 µM (inactive); with K562, 51.5 µM (inactive). The GI50 with MCF7 is 47.8 µM (inactive); in the test with NCI-H226, > 100 µM (inactive); in the test on SK-MEL-28 it was > 100 µM (inactive); with SN12C, > 100 µM (inactive); in the test on SR, 46.6 µM (inactive); in the test with U-251, 27.5 µM (inactive). Further, the GI50 in the test on UACC-62 was 65.9 µM (inactive).
Turning to `CCN(CC)C(=S)SNCCc1ccc(S(N)(=O)=O)cc1`, the GI50 in the test with 786-0 is 14.7 µM (inactive); with A549 it was 11.9 µM (inactive); in the test on CAKI-1, 14 µM (inactive); with CCRF-CEM it was 0.169 µM (active); in the test on DU-145, 14 µM (inactive); in the test with HOP-92, 17.5 µM (inactive). Moreover, the GI50 with Hs-578T was 19.5 µM (inactive); with K562, 20 µM (inactive); in the test on NCI-H226, 42.7 µM (inactive); with NCI-H460, 22.4 µM (inactive); with RPMI-8226, 11.5 µM (inactive); in the test with SK-MEL-28 it was 9.23 µM (inactive). The GI50 in the test with SN12C is 14.2 µM (inactive); with SNB-75, 13.9 µM (inactive); in the test with SR, < 0.01 µM (active); in the test with SW-620, 14.1 µM (inactive); with U-251 it was 15.5 µM (inactive); in the test with UACC-62, 16.9 µM (inactive).
